PMC12028158, “Synthesis and In Vitro Evaluation of the Anticancer Effect of Novel Phosphonium Vindoline Derivatives” (International Journal of Molecular Sciences, 2025)

Experiments:
Assay type in all cases: cell-based
KM12 = assay: NCI60 five-dose screen; conditions: Homo sapiens, KM12
NCI-H522 = assay: NCI60 five-dose screen; conditions: Homo sapiens, NCI-H522
HS 578T = assay: NCI60 one-dose screen; conditions: Homo sapiens, Hs-578T, read-out: Growth percent
Breast Cancer panel = assay: NCI60 five-dose screen, panel mean; conditions: Homo sapiens, read-out: Mean GI50
U251 = assay: NCI60 five-dose screen; conditions: Homo sapiens, U-251
SN12C = assay: NCI60 five-dose screen; conditions: Homo sapiens
EKVX [1] = assay: NCI60 one-dose screen; conditions: Homo sapiens, read-out: Growth percent
HOP-92 = assay: NCI60 five-dose screen; conditions: Homo sapiens, HOP-92
MALME-3M [2] = assay: NCI60 one-dose screen; conditions: Homo sapiens, Malme-3M, read-out: Growth percent
HCC-2998 = assay: NCI60 five-dose screen; conditions: Homo sapiens, HCC 2998
SNB-19 = assay: NCI60 one-dose screen; conditions: Homo sapiens, SNB-19, read-out: Growth percent
RPMI-8226 = assay: NCI60 five-dose screen; conditions: Homo sapiens, RPMI-8226
TK-10 = assay: NCI60 five-dose screen; conditions: Homo sapiens, TK-10
MALME-3M [3] = assay: NCI60 five-dose screen; conditions: Homo sapiens, Malme-3M
CNS Cancer panel = assay: NCI60 five-dose screen, panel mean; conditions: Homo sapiens, read-out: Mean GI50
HT29 = assay: NCI60 one-dose screen; conditions: Homo sapiens, HT-29, read-out: Growth percent
SK-MEL-2 = assay: NCI60 one-dose screen; conditions: Homo sapiens, SK-MEL-2, read-out: Growth percent
SW-620 = assay: NCI60 five-dose screen; conditions: Homo sapiens, SW-620
OVCAR-3 = assay: NCI60 five-dose screen; conditions: Homo sapiens, OVCAR-3
EKVX [4] = assay: NCI60 five-dose screen; conditions: Homo sapiens
LOX IMVI = assay: NCI60 one-dose screen; conditions: Homo sapiens, read-out: Growth percent
A498 = assay: NCI60 five-dose screen; conditions: Homo sapiens, A498
IGROV1 [5] = assay: NCI60 five-dose screen; conditions: Homo sapiens, IGROV-1
ACHN [6] = assay: NCI60 one-dose screen; conditions: Homo sapiens, read-out: Growth percent
DU-145 = assay: NCI60 one-dose screen; conditions: Homo sapiens, DU-145, read-out: Growth percent
SF-268 [7] = assay: NCI60 one-dose screen; conditions: Homo sapiens, SF-268, read-out: Growth percent
A549/ATCC = assay: NCI60 five-dose screen; conditions: Homo sapiens, A549
MDA-MB-468 = assay: NCI60 five-dose screen; conditions: Homo sapiens, MDA-MB-468
NCI-H23 = assay: NCI60 one-dose screen; conditions: Homo sapiens, NCI-H23, read-out: Growth percent
MDA-MB-435 [8] = assay: NCI60 five-dose screen; conditions: Homo sapiens, MDA-MB-435
IGROV1 [9] = assay: NCI60 one-dose screen; conditions: Homo sapiens, IGROV-1, read-out: Growth percent
T-47D = assay: NCI60 five-dose screen; conditions: Homo sapiens, T47D
SF-539 = assay: NCI60 one-dose screen; conditions: Homo sapiens, SF-539, read-out: Growth percent
ACHN [10] = assay: NCI60 five-dose screen; conditions: Homo sapiens
CCRF-CEM [11] = assay: NCI60 one-dose screen; conditions: Homo sapiens, read-out: Growth percent
HOP-62 = assay: NCI60 five-dose screen; conditions: Homo sapiens, HOP-62
HL-60(TB) = assay: NCI60 five-dose screen; conditions: Homo sapiens, HL-60
COLO 205 [12] = assay: NCI60 one-dose screen; conditions: Homo sapiens, COLO 205, read-out: Growth percent
NCI-H460 = assay: NCI60 one-dose screen; conditions: Homo sapiens, NCI-H460, read-out: Growth percent
SK-MEL-5 = assay: NCI60 one-dose screen; conditions: Homo sapiens, SK-MEL-5, read-out: Growth percent
OVCAR-4 = assay: NCI60 five-dose screen; conditions: Homo sapiens, OVCAR-4
SF-295 = assay: NCI60 five-dose screen; conditions: Homo sapiens, SF-295
SF-268 [13] = assay: NCI60 five-dose screen; conditions: Homo sapiens, SF-268
COLO 205 [14] = assay: NCI60 five-dose screen; conditions: Homo sapiens, COLO 205
MDA-MB-435 [15] = assay: NCI60 one-dose screen; conditions: Homo sapiens, MDA-MB-435, read-out: Growth percent
CCRF-CEM [16] = assay: NCI60 five-dose screen; conditions: Homo sapiens
[17] = test system: 60 human tumor cell lines (NCI60); assay: NCI60 one-dose screen, overall mean; conditions: Homo sapiens, 60 cell, read-out: Mean growth percent

CC[C@]12C=CCN3CC[C@@]4(c5ccc(OC)cc5N(C)[C@H]4[C@@](O)(C(=O)OC)[C@@H]1OC(=O)CCC[P+](C1CCCCC1)(C1CCCCC1)C1CCCCC1)[C@@H]32 [9d]
GI50 (KM12): 1.63 µM | GI50 (NCI-H522): 6.88 µM | activity at 10 µM (HS 578T): -33% | GI50 (Breast Cancer panel): 1.54 µM | GI50 (U251): 0.746 µM | GI50 (SN12C): 2.89 µM | activity at 10 µM (EKVX [1]): 15.4% | GI50 (HOP-92): 1.01 µM | activity at 10 µM (MALME-3M [2]): -96.1% | GI50 (HCC-2998): 1.7 µM | activity at 10 µM (SNB-19): -60% | GI50 (RPMI-8226): 0.383 µM | GI50 (TK-10): 2.73 µM | GI50 (MALME-3M [3]): 1.46 µM | GI50 (CNS Cancer panel): 2.71 µM | activity at 10 µM (HT29): -56.7% | activity at 10 µM (SK-MEL-2): -84.9% | GI50 (SW-620): 2.95 µM | GI50 (OVCAR-3): 1.74 µM | GI50 (EKVX [4]): 3.09 µM | activity at 10 µM (LOX IMVI): -96% | GI50 (A498): 12.4 µM | GI50 (IGROV1 [5]): 1.39 µM | activity at 10 µM (ACHN [6]): 32% | activity at 10 µM (DU-145): 15.7% | activity at 10 µM (SF-268 [7]): -54.1% | GI50 (A549/ATCC): 3.46 µM | GI50 (MDA-MB-468): 0.313 µM | activity at 10 µM (NCI-H23): -4.73% | GI50 (MDA-MB-435 [8]): 1.83 µM | activity at 10 µM (IGROV1 [9]): -86% | GI50 (T-47D): 1.32 µM | activity at 10 µM (SF-539): -86.5% | GI50 (ACHN [10]): 15.2 µM | activity at 10 µM (CCRF-CEM [11]): -40.9% | GI50 (HOP-62): 3.68 µM | GI50 (HL-60(TB)): 0.322 µM | activity at 10 µM (COLO 205 [12]): -63.6% | activity at 10 µM (NCI-H460): 4.64% | activity at 10 µM (SK-MEL-5): -98.4% | GI50 (OVCAR-4): 2.39 µM | GI50 (SF-295): 4.41 µM | GI50 (SF-268 [13]): 3.23 µM | GI50 (COLO 205 [14]): 0.43 µM | activity at 10 µM (MDA-MB-435 [15]): -80.1% | GI50 (CCRF-CEM [16]): 1.69 µM | activity at 10 µM [17]: -32.7%

CC[C@]12C=CCN3CC[C@@]4(c5ccc(OC)cc5N(C)[C@H]4[C@@](O)(C(=O)OC)[C@@H]1OC(=O)CCC[P+](c1ccc(F)cc1)(c1ccc(F)cc1)c1ccc(F)cc1)[C@@H]32 [9c]
GI50 (KM12): 8.96 µM | GI50 (NCI-H522): 3.88 µM | activity at 10 µM (HS 578T): 19.1% | GI50 (Breast Cancer panel): 8.04 µM | GI50 (U251): 9.36 µM | GI50 (SN12C): 14.8 µM | activity at 10 µM (EKVX [1]): 58.1% | GI50 (HOP-92): 5.44 µM | activity at 10 µM (MALME-3M [2]): -32.6% | GI50 (HCC-2998): 9.53 µM | activity at 10 µM (SNB-19): 13.8% | GI50 (RPMI-8226): 2.05 µM | GI50 (TK-10): 22.2 µM | GI50 (MALME-3M [3]): 6.85 µM | GI50 (CNS Cancer panel): 20.2 µM | activity at 10 µM (HT29): 15.7% | activity at 10 µM (SK-MEL-2): -46.9% | GI50 (SW-620): 18.3 µM | GI50 (OVCAR-3): 6.47 µM | GI50 (EKVX [4]): 19.4 µM | activity at 10 µM (LOX IMVI): 31.1% | GI50 (A498): > 48.5 µM | GI50 (IGROV1 [5]): 7.09 µM | activity at 10 µM (ACHN [6]): 101% | activity at 10 µM (DU-145): 47.7% | activity at 10 µM (SF-268 [7]): 42.3% | GI50 (A549/ATCC): 21.5 µM | GI50 (MDA-MB-468): 1.5 µM | activity at 10 µM (NCI-H23): 35.5% | GI50 (MDA-MB-435 [8]): 8.14 µM | activity at 10 µM (IGROV1 [9]): -15% | GI50 (T-47D): 10.5 µM | activity at 10 µM (SF-539): 24.2% | GI50 (ACHN [10]): > 48.5 µM | activity at 10 µM (CCRF-CEM [11]): 20% | GI50 (HOP-62): 20.5 µM | GI50 (HL-60(TB)): 1.77 µM | activity at 10 µM (COLO 205 [12]): -18.9% | activity at 10 µM (NCI-H460): 30.9% | activity at 10 µM (SK-MEL-5): -38.3% | GI50 (OVCAR-4): 16.2 µM | GI50 (SF-295): > 48.5 µM | GI50 (SF-268 [13]): 15 µM | GI50 (COLO 205 [14]): 4.98 µM | activity at 10 µM (MDA-MB-435 [15]): 6.69% | GI50 (CCRF-CEM [16]): 12.7 µM | activity at 10 µM [17]: 26.3%
